The values that follow come from patent US7595320B2, “Hydrazinocarbonyl-thieno[2,3-C]pyrazoles, process for preparing them, compositions containing them and use thereof” (Aventis Pharma S.A., priority 2005, dated 2009).

Format in all cases: biochemical
For one experiment, the target named is T1, Aurora1 (Homo sapiens, UniProt Q96GD4).
T1 construct: His tag (N); made in house
The experiment is described as follows: Aurora1 enzymatic test, NuMA phosphorylation with [33P]ATP, Flashplate. As to conditions: Aurora-B/INCENP-C3 recombinant complex, 1 μM ATP. The procedure: (§1) The inhibitory effect of compounds with respect to the kinases Aurora1 and Aurora2 is determined by means of an enzymatic test using radioactivity detection.
(§2) The kinase activity of Aurora1 and Aurora2 is evaluated via the phosphorylation of the substrate Numa-histidine in the presence of radiolabelled ATP ([^33P]ATP) using 96-well Flashplate plates in which the nickel chelate is bound to the surface of the microplate. The amount of ^33P phosphate incorporated into the NuMA substrate is proportional to the activity of the enzyme Aurora1 or Aurora2.
Aurora1: Aurora-B/INCENP-C3 recombinant complex, purified to about 50%, the N-terminal end of Aurora-B of which has been labeled with histidine.
(§3) NuMA (nuclear protein that combines with the mitotic apparatus): 424-amino acid fragment, expressed in E. coli, the N-terminal end of which has been labeled with histidine, and used as substrate for the two Aurora enzymes.
(§4) The microplates used are 96-well Flash-Plate plates, nickel chelate (Perkin-Elmer, model SMP107).
(§5) The products to be evaluated are incubated in a reaction volume of 100 μL per well, in the presence of 10 nM of Aurora1 or Aurora2, 500 nM of NuMA substrate in a buffer composed of 50 mM Tris/HCl (pH 7.5), 50 mM NaCl, 5 mM MgCl2 (Aurora-B) or 10 mM MgCl2 (Aurora-A) and 1 mM DTT, at 37° C.
(§6) 80 μL of enzyme/substrate incubation buffer are distributed in each well, followed by 10 μL of product to be evaluated, at variable concentrations. The reaction is initiated by adding 1 μM final of ATP containing 0.2 μCi of [^33P]ATP (10 μL). After incubating for 30 minutes, the reaction is quenched by simple removal of the reaction buffer and each well is washed twice with 300 μl of Tris/HCl buffer. The radioactivity is then measured in each well using a Packard, Top-Count model scintillation machine.
(§7) The control enzymatic activity of Aurora is expressed by the number of counts per minute obtained over 30 minutes after subtracting the background noise (reaction mixture containing no enzyme). The evaluation of the various test products is expressed as a percentage of inhibition of the Aurora activity relative to the control.

For another experiment, the target named is T2, Aurora2 (Homo sapiens, UniProt O14965).
T2 construct: Aurora2: whole recombinant protein comprising an N-terminal histidine tail; His tag (N); made in house; host or cells: E. coli
T2 sequence (O14965 1-403): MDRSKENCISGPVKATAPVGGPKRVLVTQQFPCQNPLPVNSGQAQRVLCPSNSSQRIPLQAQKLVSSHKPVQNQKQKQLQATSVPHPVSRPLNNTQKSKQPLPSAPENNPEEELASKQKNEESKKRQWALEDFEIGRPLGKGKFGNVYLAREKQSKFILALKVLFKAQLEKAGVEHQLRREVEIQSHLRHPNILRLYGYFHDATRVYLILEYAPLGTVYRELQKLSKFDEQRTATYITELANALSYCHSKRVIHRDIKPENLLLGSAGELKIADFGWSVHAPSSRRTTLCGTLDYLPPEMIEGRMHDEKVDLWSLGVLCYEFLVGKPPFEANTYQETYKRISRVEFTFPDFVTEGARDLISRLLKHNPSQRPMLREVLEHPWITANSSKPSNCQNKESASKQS
The experiment is described as follows: Aurora2 enzymatic test, NuMA phosphorylation with [33P]ATP, Flashplate. Conditions: whole recombinant protein, 1 μM ATP. How it is done:
as §1, §2
Aurora2: whole recombinant protein comprising an N-terminal histidine tail, was expressed in E. coli and purified to more than 82%.
as §3, §4, §5, §6, §7

A further experiment addresses T3, CDK2/cycline E (Homo sapiens, UniProt P24941).
T3 construct: made in house; host or cells: Sf21 insect cells (baculovirus coinfection)
The experiment is described as follows: CDK2/cyclineE Flashplate test in 96-well format. As to conditions: CDK2/cycline E complex, 1 μM ATP. How it is done:
Two recombinant baculoviruses bearing the human sequences coding, respectively, for CDK2 and cyclineE (the latter bearing a C-terminal hexahistidine tag) are used to coinfect Sf21 insect cells. Two to three days after the start of coinfection, the cells are harvested by centrifugation and then stored at −40° C. until the time of use.
A format in streptavidin-coated 96-well plates is used to test the activity of the compounds on the kinase activity of CDK2/cycline E.
To perform this test, the biotinylated peptide substrate, a fragment of the protein pRb (biotinyl-[…]-OH), is dissolved at a concentration of 1 mM in kinase buffer (HEPES/NaOH 50 mM, NaCl 1 mM, MgCl2 5 mM, pH 7.5) in order to constitute a stock solution stored at −20° C. in the form of 110 μL aliquots. On the day of the experiment, an aliquot of this solution is thawed and diluted in kinase buffer containing 1 mM of dithiothreitol, added to the buffer extemporaneously, in order to obtain a concentration of 14.3 μM. 70 μL of this solution are added to each well of the Flashplate in order to obtain a final substrate concentration of 10 μM during the enzymatic reaction performed in a final volume of the reaction medium of 100 μL (cf. below).
Intermediate dilutions of inhibitors (products of the invention) at various concentrations are prepared in DMSO from stock solutions at 10 mM in separate tubes. Dilutions at 1000 μM, 333.3 μM, 111.1 μM, 37.03 μM, 12.35 μM, 4.11 μM and 1.37 μM are thus prepared. One μL of each of these solutions (or 1 μL of DMSO for the controls) is transferred into the wells of the test plate.
19 μl of a solution of a mixture of adenosine triphosphate (ATP) and of ATPγ^33P in kinase buffer at a total concentration of 5.26 μM of ATP and 52.6 μCi/ml of ^33P are then added to each well. The enzymatic reaction is initiated by adding 10 μL per well of a 200 nM solution of CDK2/cycline E in kinase buffer containing 1 mM of dithiothreitol (or 10 μL of kinase buffer containing 1 mM of dithiothreitol for the reaction blanks).
After addition of each of the reagents, the final volume of each well is 100 μL, the final concentration of substrate is 10 μM, the final inhibitor concentrations are 10 μM, 3.33 μM, 1.11 μM, 0.37 μM, 0.123 μM, 0.041 μM and 0.014 μM (according to the concentration of the intermediate dilution), the final ATP concentration is 1 μM, the final amount of ^33P is 1 μCi/well, and the final concentration of CDK2/cycline E complex is 20 nM.
After addition of all of the reagents, the test plate is incubated at 30° C. with orbital shaking at 650 rpm.
When the incubation is complete, the plate is washed three times with 300 μL per well of PBS (phosphate-buffered saline, pH=7.4, without calcium or magnesium, reference 10010-015, Gibco BRL). The incorporation of ^33P to the peptide is quantified by scintillation counting with a Packard Topcount.NXT machine.

Another experiment addresses T4, Tie2 (Homo sapiens, UniProt Q02763).
T4 construct: amino acids of the intracellular domain 776-1124; made in house; host or cells: baculovirus expression (pFastBacGT vector)
The experiment is described as follows: Tie2 kinase test, phosphorylation of PLC with GST-Tie2. As to conditions: GST-Tie2 intracellular domain 776-1124. The procedure:
The coding sequence of human Tie2 corresponding to the amino acids of the intracellular domain 776-1124 was generated by PCR using the cDNA isolated from a human placenta as a model. This sequence was introduced into a pFastBacGT baculovirus expression vector in the form of a GST fusion protein.
The inhibitory effect of the molecules is determined in a test of phosphorylation of PLC with Tie2 in the presence of GST-Tie2 purified to about 80% homogeneity. The substrate is composed of the SH2-SH3 fragments of PLC expressed in the form of a GST fusion protein.
The kinase activity of Tie2 is measured in a MOPS 20 mM pH 7.2 buffer, containing 10 mM MgCl2, 10 mM MnCl2, 1 mM DTT, 10 mM of glycerophosphate. In a 96-well FlashPlate plate maintained on ice, a reaction mixture is deposited, composed of 70 μL of kinase buffer containing 100 ng of enzyme GST-Tie2 per well. Next, 10 μL of the test molecule diluted in DMSO to a maximum concentration of 10% are added. For a given concentration, each measurement is performed four times. The reaction is initiated by adding 20 μL of solution containing 2 μg of GST-PLC, 2 μm of cold ATP and 1 μCi of ^33P[ATP]. After incubation for one hour at 37° C., the reaction is stopped by adding 1 volume (100 μl) of 200 mM EDTA. After removal of the incubation buffer, the wells are washed three times with 300 μL of PBS. The radioactivity is measured on a MicroBeta1450 Wallac.
The inhibition of the Tie2 activity is calculated and expressed as a percentage of inhibition relative to the control activity determined in the absence of compound.

Counter-ions that a name gives are not always drawn.

T1 sequence (Q96GD4 whole entry, species assumed): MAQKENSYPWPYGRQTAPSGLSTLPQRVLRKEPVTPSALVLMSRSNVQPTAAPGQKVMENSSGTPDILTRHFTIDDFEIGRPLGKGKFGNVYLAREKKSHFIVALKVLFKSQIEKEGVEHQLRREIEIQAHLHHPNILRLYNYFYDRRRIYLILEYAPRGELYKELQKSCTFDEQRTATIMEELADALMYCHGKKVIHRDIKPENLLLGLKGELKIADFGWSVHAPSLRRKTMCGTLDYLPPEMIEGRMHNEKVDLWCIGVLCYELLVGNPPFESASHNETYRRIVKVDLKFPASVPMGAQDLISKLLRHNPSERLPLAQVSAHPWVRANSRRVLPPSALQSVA
T1 sequence (Q9NQS7 835-903 partner limits assumed, species assumed): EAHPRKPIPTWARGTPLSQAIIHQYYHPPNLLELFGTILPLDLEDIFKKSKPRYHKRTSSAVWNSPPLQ
T4 sequence (Q02763 776-1124): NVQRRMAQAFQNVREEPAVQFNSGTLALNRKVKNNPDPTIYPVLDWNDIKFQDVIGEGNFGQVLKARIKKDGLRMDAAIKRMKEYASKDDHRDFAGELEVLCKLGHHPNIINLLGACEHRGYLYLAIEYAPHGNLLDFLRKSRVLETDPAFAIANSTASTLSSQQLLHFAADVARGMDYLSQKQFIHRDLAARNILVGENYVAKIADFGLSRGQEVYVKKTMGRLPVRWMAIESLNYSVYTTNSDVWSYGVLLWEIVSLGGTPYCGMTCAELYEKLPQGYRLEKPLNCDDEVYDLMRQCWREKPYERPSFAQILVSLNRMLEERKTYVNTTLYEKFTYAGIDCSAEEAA

`CC1CN(Cc2ccc(C(=O)Nc3n[nH]c4sc(C(=O)NN(C)c5ccc(Cl)cc5)cc34)cc2)CC(C)N1` (stereo not drawn) [Example 11b, 4-(3,5-dimethylpiperazin-1-ylmethyl)-N-[5-(N′-(4-chlorophenyl)-N′-methylhydrazinocarbonyl)-1H-thieno[2,3-c]pyrazol-3-yl]-benzamide]: the IC50 on Aurora1 was found to be 216 nM; on Aurora2 it was 73 nM; on CDK2/cycline E, 77 nM; at Tie2, 704 nM.

Consider `CN1CCCN(Cc2ccc(C(=O)Nc3n[nH]c4sc(C(=O)NN(C)c5ccccc5)cc34)cc2)CC1` [Example 12a, 4-(4-methylperhydro-1,4-diazepin-1-ylmethyl)-N-[5-(N′-methyl-N′-phenylhydrazinocarbonyl)-1H-thieno[2,3-c]-pyrazol-3-yl]benzamide], for which the half-maximal inhibitory concentration (IC50) on Aurora1 is 128 nM; at Aurora2, 31 nM; against CDK2/cycline E, 126 nM; against Tie2 it was 564 nM.

For the compound `CN1CCCN(Cc2ccc(C(=O)Nc3n[nH]c4sc(C(=O)NN(C)c5ccc(Cl)cc5)cc34)cc2)CC1` [Example 12b, 4-(4-methylperhydro-1,4-diazepin-1-ylmethyl)-N-[5-(N′-(4-chlorophenyl)-N′-methylhydrazinocarbonyl)-1H-thieno[2,3-c]pyrazol-3-yl]benzamide], the IC50 on Aurora1 stood at 151 nM; on Aurora2 it was 68 nM; against CDK2/cycline E it was 40 nM; against Tie2 it was 218 nM.

For `CN(NC(=O)c1cc2c(NC(=O)c3ccc(CN4CCNCC4)cc3)n[nH]c2s1)c1ccccc1` [Example 13a, N-[5-(N′-methyl-N′-phenylhydrazinocarbonyl)-1H-thieno[2,3-c]pyrazol-3-yl]-4-piperazin-1-ylmethylbenzamide], the IC50 at Aurora1 was 141 nM; at Aurora2, 23 nM; at CDK2/cycline E it was 151 nM; against Tie2, 679 nM.

With `CN(NC(=O)c1cc2c(NC(=O)c3ccc(CN4CCNCC4)cc3)n[nH]c2s1)c1ccc(Cl)cc1` [Example 13b, N-{5-[N′-(4-chlorophenyl)-N′-methylhydrazinocarbonyl]-1H-thieno[2,3-c]pyrazol-3-yl}-4-piperazin-1-ylmethylbenzamide], the IC50 on Aurora1 was 182 nM; at Aurora2 it was 85 nM; against CDK2/cycline E, 49 nM; at Tie2, 324 nM.

As to `CC1CN(Cc2ccc(C(=O)Nc3n[nH]c4sc(C(=O)NN(C)c5ccccc5)cc34)cc2)CCN1` (stereo not drawn) [Example 14a, N-[5-(N′-methyl-N′-phenylhydrazinocarbonyl)-1H-thieno[2,3-c]pyrazol-3-yl]-4-(3-methylpiperazin-1-ylmethyl)benzamide], the IC50 on Aurora1 was 158 nM; on Aurora2 it was 19 nM; against CDK2/cycline E, 166 nM; against Tie2, 737 nM.

For `CC1CN(Cc2ccc(C(=O)Nc3n[nH]c4sc(C(=O)NN(C)c5ccc(Cl)cc5)cc34)cc2)CCN1` (stereo not drawn) [Example 14b, N-{5-[N′-(4-chlorophenyl)-N′-methylhydrazinocarbonyl]-1H-thieno[2,3-c]pyrazol-3-yl}-4-(3-methylpiperazin-1-ylmethyl)benzamide], the IC50 on Aurora1 is 148 nM; on Aurora2 it was 44 nM; on CDK2/cycline E it was 46 nM; at Tie2 it was 425 nM.

`CCN(CC)Cc1ccc(C(=O)Nc2n[nH]c3sc(C(=O)NN(C)c4ccccc4)cc23)cc1` [Example 15a, 4-diethylaminomethyl-N-[5-(N′-methyl-N′-phenylhydrazinocarbonyl)-1H-thieno[2,3-c]pyrazol-3-yl]benzamide trifluoroacetate]: the concentration for half-maximal inhibition (IC50) at Aurora1 was found to be 114 nM; at Aurora2, 12 nM; against CDK2/cycline E, 210 nM; on Tie2, 623 nM.

With `CCN(CC)Cc1ccc(C(=O)Nc2n[nH]c3sc(C(=O)NN(C)c4ccc(Cl)cc4)cc23)cc1` [Example 15b, N-{5-[N′-(4-chlorophenyl)-N′-methylhydrazinocarbonyl]-1H-thieno[2,3-c]pyrazol-3-yl}-4-diethylaminomethylbenzamide], the IC50 was determined as 329 nM at Aurora1, 37 nM on Aurora2, 82 nM against CDK2/cycline E and 393 nM at Tie2.
